Columns and labels:
[1] = tested on: C57.BL/6 mice, carrageenan-induced footpad edema; assay: Carrageenan-induced footpad edema model; format: in vivo, mouse; details: 3 mg/kg, p.o.
Protocol: Carrageenan-Induced Footpad Edema is an acute rodent model of innate immune function. Intradermal (ID) injection of an inflammatory agent causes a rapid influx of neutrophils and fluid edema, which peaks at approximately 4 hours, followed by an influx of macrophages and monocytes, which peaks at approximately 48 hours. C57.BL/6 mice (8-10-week-old, Jackson Laboratories, Bar Harbor, Me.) were injected ID in the rear footpad with 30 μL of either PBS (left) or λ-carrageenen (Sigma Aldrich, St. Louis, Mo.) in PBS (right) at a concentration of 5.0 mg/mL (150 μg/mouse). […] Significant difference for paw thickness was determined by comparing mean paw swelling for each treatment group to vehicle in a Student's two-tailed t-test.
The endpoint measured was the difference in paw swelling (edema) between right and left paws 4 hours after treatment.

[2] = tested on: human TNFα transgenic B6.Cg(SJL)-Tg(TNF) N21+ mice; assay: Human TNFα transgenic induced arthritis model; format: in vivo, mouse; details: 30 mg/kg
Protocol: Human TNFα transgenic B6.Cg(SJL)-Tg(TNF) N21+ mice (40 male and 40 females) (Taconic, Hudson, N.Y.) at 4 weeks age were divided into 10 groups of 8 mice (4 male and 4 females/group). Each week, starting from week 5 until week 12 of age the morphology of the rear ankle joints of the mice were evaluated and scored for signs and symptoms of arthritis. Arthritic scores were assigned as follows. • 0=no arthritis (normal appearance and flexion) • 1=mild arthritis (joint distortion) • 2=moderate arthritis (swelling, joint deformation); and • 3=severe arthritis (ankylosis detected on flexion and severely impaired movement)
Animals were randomized to achieve approximately similar mean arthritic score (MAS) for all groups at week 9 at first signs of symptoms. Animals were then treated i.p. twice a week starting from week 10 of age until week 12 of age. Mice in group 1 served as untreated control were administered PBS.

human TNFα [3] = molecular target: T1, human TNFα (Homo sapiens, UniProt P01375); assay: BIAcore assay, TNFα binding kinetics and affinity
T1 sequence (P01375 77-233 limits assumed): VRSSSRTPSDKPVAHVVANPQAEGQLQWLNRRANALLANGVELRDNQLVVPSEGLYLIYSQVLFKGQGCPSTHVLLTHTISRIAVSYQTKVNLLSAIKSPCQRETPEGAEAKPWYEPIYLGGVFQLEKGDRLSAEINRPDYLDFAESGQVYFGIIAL
Protocol: The BIACORE assay (BIAcore, Inc, Piscataway, N.J.) determines the affinity of antibodies or DVD-Ig with kinetic measurements of on-rate and off-rate constants. Binding of antibodies or DVD-Ig to a target antigen (for example, a purified recombinant target antigen) is determined by surface plasmon resonance-based measurements with a BIAcore® 3000 instrument (BIAcore® AB, Uppsala, Sweden) using running HBS-EP (10 mM HEPES [pH 7.4], 150 mM NaCl, 3 mM EDTA, and 0.005% surfactant P20) at 25° C. All chemicals are obtained from BIAcore® AB (Uppsala, Sweden) or otherwise from a different source as described in the text. […] The association and dissociation rate constants, kon (M^−1 s^−1) and koff (s^−1) are determined under a continuous flow rate of 25 μl/min. […] The equilibrium dissociation constant (M) of the reaction between antibodies or DVD-Igs and the target antigen is then calculated from the kinetic rate constants by the following formula: KD=koff/kon. Binding is recorded as a function of time and kinetic rate constants are calculated. In this assay, on-rates as fast as 10^6M^−1 s^−1 and off-rates as slow as 10^−6 s^−1 can be measured. […]

Dynamic light scattering = format: physicochemical; details: 2 mg/mL in PBS
Protocol: Samples were centrifuged at 10,000 RPM for 10 minutes before measured on DynaPro-801 Dynamic light scattering system.

human TNFα [4] = molecular target: T1, human TNFα; assay: L929 assay (TNFα induced death of L929 cells); format: cell-based, mouse; details: read-out: TNFα Cellular Potency IC50

Row | Kd (human TNFα [3]) | Molecule | % Inhibition [1] | Δ Paw Swelling ([1]; 4 hours post carrageenan) | maximal efficacy (inhibition of AUC of the mean arthritis score) [2] | hydrodynamic radius (Dynamic light scattering) | IC50 (human TNFα [4])
1 | – | COc1ccc2c(c1)c(CC(=O)O)c(C)n2C(=O)c1ccc(Cl)cc1 [Indomethacin, reference compound] | 57 ± 3.5% | 0.486 ± 0.03 mm | – | – | –
2 | 27 pM | D2E7: human anti-TNFα monoclonal antibody, parent of the DVD-Igs [reference compound] | – | – | 59% | 5.46 nm | 41 pM
